For data set [1] the following is noted: cited from earlier work.
The subject of data set [2] is OVCAR 3 Cancer cells. As to the kind of experiment: Nano formulations in animals with implanted tumor: side effects. To be noted: mouse, in vivo. As to the method: Animals—Immunodeficient, female athymic mice aged 5-6 weeks and weighing between 18 and 20 g were purchased from Taconic Biosciences (Albany, N.Y.). All animal studies were conducted at the animal facility of the Veteran Affairs Medical Center, Albany, N.Y. in accordance with and approved by institutional guidelines for humane animal treatment and according to the current guidelines. Mice were maintained under specific pathogen-free conditions and housed under controlled conditions of temperature (20-24° C.) and humidity (60-70%) and 12 h light/dark cycle with ad libitum access to water and food. Mice were allowed to acclimatize for 5 d prior to the start of study.
Treatment—OVCAR 3 Cancer cells (1×10^6) were implanted subcutaneously in right flank of each animal. In the first set of experiments, control, free Quercetin (3 mg/kg), NPS-quercetin(3 mg/kg), and FA-NPs-quercetin (3 mg/kg) were injected subcutaneously to the mice everyday (for 14 days). The control was PBS, after humane sacrifice of animals at 14 days, tumors were harvested and amount of QC was measured.

For the molecule `O=c1c(O)c(-c2ccc(O)c(O)c2)oc2cc(O)cc(O)c12` [Quercetin, quercetin], in data set [1], the water solubility entry is given as “not water soluble”. Further, the “adverse toxic effect on the health of tumor bearing mice” value in data set [2] was “does not have any adverse toxic effect”.

Source of the values: US20220087946A1, “COMPOSITIONS, METHODS, SYSTEMS AND/OR KITS FOR PREVENTING AND/OR TREATING NEOPLASMS” (Research Cancer Institute of America, priority 2017, published 2022).
